The record followed here is patent US20230148450A9, “BICYCLIC HETEROARYL COMPOUNDS AND USES THEREOF” (Revolution Medicines, Inc., priority 2019, published 2023).

Experiment [1] addresses T1, SOS1 catalytic domain (residues 564-1049) (Homo sapiens, UniProt Q07889).
T1 construct: SOS1 catalytic domain (residues 564-1049) immobilized on a sensor chip
T1 sequence (Q07889 564-1049): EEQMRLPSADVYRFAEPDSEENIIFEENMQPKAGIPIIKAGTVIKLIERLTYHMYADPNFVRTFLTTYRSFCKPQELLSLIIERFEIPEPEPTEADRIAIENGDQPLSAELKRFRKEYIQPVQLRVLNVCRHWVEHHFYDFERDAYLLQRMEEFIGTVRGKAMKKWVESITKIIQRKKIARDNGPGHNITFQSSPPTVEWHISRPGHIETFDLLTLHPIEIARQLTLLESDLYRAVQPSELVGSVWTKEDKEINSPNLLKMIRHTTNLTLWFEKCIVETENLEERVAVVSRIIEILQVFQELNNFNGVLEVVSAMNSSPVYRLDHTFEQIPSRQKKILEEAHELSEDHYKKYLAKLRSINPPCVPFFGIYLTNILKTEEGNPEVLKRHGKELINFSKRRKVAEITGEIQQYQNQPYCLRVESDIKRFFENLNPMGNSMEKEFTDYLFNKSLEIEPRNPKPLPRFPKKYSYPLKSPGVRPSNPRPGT
Nature of the experiment: Binding affinity to SOS1 using Surface Plasmon Resonance (SPR). The note with it: avi-tagged SOS1 catalytic domain immobilized on sensor chip; read-out: SOS1 SPR Equilibrium Kd. From the text:
Potency Assay: Measurement of the Binding Affinity of Compounds of the Invention to SOS! using Surface Plasmon Resonance (SPR)
The purpose of the SPR assay was to measure the direct binding of compounds to SOS1 catalytic domain (residues 564-1049) immobilized on a sensor chip. Data was reported as equilibrium dissociation constant (Kd) values.
Using a GE Biacore 8K SPR instrument, avi-tagged SOS1 catalytic domain protein was immobilized to a level of approximately 6000 response units (RU) on a streptavidin-coated SPR sensor chip in assay buffer containing 0.01 M HEPES, 0.15 M NaCl and 0.05% v/v Surfactant P20. In assay buffer containing 2% DMSO, concentration series of test compounds were generated spanning 5 μM to 4.9 nM over ten 2-fold dilutions. For each test compound, a separate 0 μM sample was generated for use during subsequent double reference subtraction. Serially for each test compound, individual dilution samples were flowed over the immobilized SOS1 protein at a flow rate of 50 μL/minute to monitor the association with SOS1. Dissociation of bound test compound from the SOS1 protein was immediately monitored by flowing assay buffer over the sensor surface and monitoring the decrease in binding signal back to the baseline level seen in the absence of compound. This was repeated for all compound dilutions in each series. The binding level response for each test compound concentration was noted immediately prior to the end of the association phase, and a secondary plot generated showing binding response level versus test compound concentration generated for each compound dilution series.

Experiment [2] addresses T2, SOS1 nucleotide exchange of KRAS (catalytic domain of SOS1, residues 564-1049; wild-type KRAS) (Homo sapiens, UniProt Q07889).
T2 construct: tagless catalytic domain of SOS1 (residues 564-1049)
T2 sequence (Q07889 564-1049): T1 sequence (Q07889 564-1049)
Nature of the experiment: Mode of Action Assay: Inhibition of SOS1 Nucleotide Exchange Activity (TR-FRET). The format is biochemical. Conditions: TR-FRET signal. An outline of the steps: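 SOS1 catalytic domain (564-1049, 100 nM as diluted) preincubated 20 min with compounds (100 μM–1.7 nM, 11-point 3-fold) in HEPES pH 7.5 buffer with MgCl2. Then mixed with avi-KRAS(1-169), Streptavidin-Tb and EDA-GTP-DY-647P1 for 30 min at room temperature. TR-FRET normalized to DMSO and positive control, triplicates; IC50 by four-parameter logistic fit.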

Experiment [3] concerns cellular pERK in PC-9 cells (EGFR Ex19Del). Nature of the experiment: Potency Assay: pERK. It is filed as cell-based. The note with it: Homo sapiens, read-out: SOS1 pERK IC50. The text has this:
The purpose of this assay is to measure the ability of test compounds to inhibit SOS1 function in cells. SOS1 activates RAS proteins by catalyzing the conversion of […] to […] in response to receptor tyrosine kinase activation. Activation of RAS induces a sequence of cellular signaling events that results in increased phosphorylation of ERK at […] (pERK). The procedure described below measures the level of cellular pERK in response to test compounds in PC-9 cells (EGFR Ex[…]). PC-9 cells were grown and maintained using media and procedures recommended by the ATCC. On the day prior to compound addition, cells were plated in 384-well cell culture plates (40 μL/well) and grown overnight in a 37° C., 5% CO2 incubator. Test compounds were prepared in 10, 3-fold dilutions in DMSO, with a top concentration of 10 mM. On the day of the assay, 40 nL of test compound was added to each well of cell culture plate using an Echo550 liquid handler (LabCyte). Concentrations of test compound were tested in duplicate with highest test concentration being 10 μM. After compound addition, cells were incubated for 1 hour at 37° C., 5% CO2. Following incubation, culture medium was removed and cells were washed once with phosphate buffered saline. Cellular pERK level was determined using the AlphaLISA SureFire Ultra p-ERK1/2 Assay Kit (PerkinElmer). Cells were lysed in 25 μL lysis buffer, with shaking at 600 RPM at room temperature for 15 minutes. Lysate (10 μL) was transferred to a 384-well Opti-plate (PerkinElmer) and 5 μL acceptor mix was added. The plate was centrifuged at 1000 RPM for 1 minute, and incubated in the dark for 2 hours. Following this incubation, 5 μL of donor mix was added, the plate was sealed and centrifuged at 1000 RPM for 1 minute, and the mixture was incubated for 2 hours at room temperature. Signal was read on an Envision plate reader (PerkinElmer) using standard AlphaLISA settings. Analysis of raw data was carried out in Excel (Microsoft) and Prism (GraphPad). Signal was plotted vs. the decadal logarithm of compound concentration, and IC50 was determined by fitting a 4-parameter sigmoidal concentration response model.

The mark [4] stands for this setting: PC-9 cells (EGFR Ex19Del), 1 hour incubation, AlphaLISA p-ERK1/2.

Where a name gives a salt, the structure may show the parent alone. Read-outs that look alike come from different tables or passages of the source.

On to `C[C@@H](Nc1ncnc2sc(C(=O)N3CCOCC3)nc12)c1cc(N)cc(C(F)(F)F)c1` [Example 42, [7-[[(1R)-1-[3-amino-5-(trifluoromethyl)phenyl]ethyl]amino]thiazolo[5,4-d]pyrimidin-2-yl]-morpholino-methanone], for which the Kd (in general, the constant that tells how readily two partners part at equilibrium) in experiment [1] is at most 400 nM. Besides, the IC50 in experiment [2] and in experiment [3] (setting [4]) was under 1000 nM in each case.
Take `C[C@@H](Nc1ncnn2cc(N3CCOCC3)cc12)c1cc(N)cc(C(F)(F)F)c1` [Example 47, N-[(1R)-1-[3-amino-5-(trifluoromethyl)phenyl]ethyl]-6-morpholino-pyrrolo[2,1-f][1,2,4]triazin-4-amine]: the Kd in experiment [1] is over 400 nM. Besides, the half-inhibitory concentration (IC50) in experiment [2] and in experiment [3] (setting [4]) was over 1000 nM each time.
Consider `C[C@@H](Nc1ncnn2cc(C(=O)N3CCOCC3)cc12)c1cc(N)cc(C(F)(F)F)c1` [Example 50, N-[(1R)-1-[3-amino-5-(trifluoromethyl)phenyl]ethyl]-6-(morpholine-4-carbonyl)pyrrolo[2,1-f][1,2,4]triazin-4-amine], for which the dissociation constant (Kd) in experiment [1] is over 400 nM. Also, the IC50 in experiment [2] and in experiment [3] (setting [4]) was under 1000 nM each time.
Take `C[C@@H](Nc1nc(Cl)nc2cc(C(=O)N3CCOCC3)[nH]c12)c1cc(N)cc(C(F)(F)F)c1` [Example 51, N-[(1R)-1-[3-amino-5-(trifluoromethyl)phenyl]ethyl]-2-chloro-6-(morpholine-4-carbonyl)-5H-pyrrolo[3,2-d]pyrimidin-4-amine]: the dissociation constant Kd in experiment [1] was over 400 nM. Further, the IC50 in experiment [2] and in experiment [3] (setting [4]) was over 1000 nM throughout.
For `C[C@@H](Nc1nccn2nc(C3=CCNCC3)nc12)c1cc(N)cc(C(F)(F)F)c1` [Example 53, N-[(1R)-1-[3-amino-5-(trifluoromethyl)phenyl]ethyl]-2-(1,2,3,6-tetrahydropyridin-4-yl)-[1,2,4]triazolo[1,5-a]pyrazin-8-amine], the dissociation constant (Kd) in experiment [1] was at most 400 nM. Further, the IC50 in experiment [2] and in experiment [3] (setting [4]) was over 1000 nM each time.
Take `C[C@@H](Nc1ncnc2[nH]c(C(=O)N3CCOCC3)nc12)c1cc(N)cc(C(F)(F)F)c1` [Example 57, N-[(1R)-1-[3-amino-5-(trifluoromethyl)phenyl]ethyl]-8-(morpholine-4-carbonyl)-9H-purin-6-amine]: in experiment [1], the Kd was at most 400 nM. Further, the IC50 in experiment [2] and in experiment [3] (setting [4]) was under 1000 nM in each case.
On to `C[C@@H](Nc1ncnc2sc(C(=O)N3CCOCC3)cc12)c1cc(N)cc(C(F)(F)F)c1` [Example 65, N-[(1R)-1-[3-amino-5-(trifluoromethyl)phenyl]ethyl]-6-(morpholine-4-carbonyl)thieno[2,3-d]pyrimidin-4-amine], for which the Kd in experiment [1] is at most 400 nM. Besides, the half-maximal inhibitory concentration (IC50) in experiment [2] and in experiment [3] (setting [4]) was under 1000 nM throughout.
`C[C@@H](Nc1ncnn2cc(C(=O)N3CCN(C)CC3)cc12)c1cccc(C(F)F)c1F` [Example 69]: the Kd in experiment [1] was at most 400 nM. Moreover, the IC50 in experiment [2] and in experiment [3] (setting [4]) was under 1000 nM in each case.
For the compound `C[C@@H](Nc1ncnn2cc(C(=O)N3CC4(CN(C)C4)C3)cc12)c1cccc(C(F)F)c1F` [Example 70], in experiment [1], the Kd is at most 400 nM. In addition, the IC50 in experiment [2] and in experiment [3] (setting [4]) was under 1000 nM each time.
Consider `C[C@@H](Nc1ncnn2cc(C(=O)N3CC4(COC4)C3)cc12)c1cccc(C(F)F)c1F` [Example 71], for which, in experiment [1], the Kd is at most 400 nM. The IC50 in experiment [2] and in experiment [3] (setting [4]) was under 1000 nM throughout.
Consider `C[C@@H](Nc1ncnn2cc(C(=O)N3CC4(C3)CN(C3COC3)C4)cc12)c1cccc(C(F)F)c1F` [Example 72], for which the Kd in experiment [1] is at most 400 nM. Also, the IC50 in experiment [2] and in experiment [3] (setting [4]) was under 1000 nM in each case.
With `C[C@@H](Nc1nc(Cl)nc2[nH]c(C(=O)N3CCOCC3)nc12)c1cccc(C(F)(F)CO)c1` [Example 73, (R)-(2-chloro-6-((1-(3-(1,1-difluoro-2-hydroxyethyl)phenyl)ethyl)amino)-9H-purin-8-yl)(morpholino)methanone], the Kd in experiment [1] was at most 400 nM. Further, the IC50 (in general, the midpoint of a concentration-inhibition curve) in experiment [2] was under 1000 nM; in experiment [3] (setting [4]), over 1000 nM.
The corresponding values for `C[C@@H](Nc1nc(Cl)cn2nc(C(=O)N3CCOCC3)cc12)c1cc(N)cc(C(F)(F)F)c1` [Example 74] are over 400 nM, over 1000 nM and under 1000 nM.
In the case of `Cc1cn2nc(C(=O)N3CCN(C4COC4)CC3)cc2c(N[C@H](C)c2cc(N)cc(C(F)(F)F)c2)n1` [Example 76], in experiment [1], the Kd was at most 400 nM. Also, the IC50 in experiment [2] and in experiment [3] (setting [4]) was under 1000 nM in each case.
For `Cc1cn2nc(C(=O)N3CC4CC3CN4C)cc2c(N[C@H](C)c2cc(N)cc(C(F)(F)F)c2)n1` (stereo partly drawn) [Example 81], the Kd in experiment [1] was at most 400 nM. Besides, the IC50 in experiment [2] and in experiment [3] (setting [4]) was under 1000 nM throughout.
In the case of `Cc1cn2nc(C(=O)N3CCN4CCC4C3)cc2c(N[C@H](C)c2cc(N)cc(C(F)(F)F)c2)n1` (stereo partly drawn) [Example 82], the Kd in experiment [1] is at most 400 nM. For the same compound, the 50% inhibitory concentration (IC50) in experiment [2] and in experiment [3] (setting [4]) was under 1000 nM in each case.
`C[C@@H](Nc1ncnc2sc(C(=O)N3CCOCC3)cc12)c1cccc(C(F)(F)CO)c1` [Example 83, (R)-(4-((1-(3-(1,1-difluoro-2-hydroxyethyl)phenyl)ethyl)amino)thieno[2,3-d]pyrimidin-6-yl)(morpholino)methanone]: the Kd in experiment [1] is at most 400 nM. The IC50 in experiment [2] and in experiment [3] (setting [4]) was under 1000 nM throughout.
On to `C[C@@H](Nc1ncnc2sc(C(=O)N3CCN(C4COC4)CC3)cc12)c1cccc(C(F)F)c1F` [Example 84, (R)-(4-((1-(3-(difluoromethyl)-2-fluorophenyl)ethyl)amino)thieno[2,3-d]pyrimidin-6-yl)(4-(oxetan-3-yl)piperazin-1-yl)methanone], for which the Kd in experiment [1] was at most 400 nM. In addition, the IC50 in experiment [2] and in experiment [3] (setting [4]) was under 1000 nM throughout.
Regarding `C[C@@H](Nc1nccc2nc(C(=O)N3CCNCC3)cn12)c1cccc(C(F)F)c1F` [Example 85, [5-[[(1R)-1-[3-(difluoromethyl)-2-fluoro-phenyl]ethyl]amino]imidazo[1,2-c]pyrimidin-2-yl]-piperazin-1-yl-methanone hydrochloride], in experiment [1], the Kd was at most 400 nM. The half-maximal inhibitory concentration (IC50) in experiment [2] was under 1000 nM; in experiment [3] (PC-9, 1 h) it was under 1000 nM.
